# Data reported in patent US4472421A, “Azole antimycotics and their use in treating skin conditions caused by Pityrosporum ovale” (Bayer Aktiengesellschaft, priority 1974, dated 1984).
# Structures can show the parent of a compound that is named as a salt. Where two headings read alike, the source gives them in different places.
# Tested on: Pityrosporum ovale
# Experiment: MIC and PI determination on Abbe's medium agar slants, dilution series
# Assay type: cell-based
# Conditions: Malassezia furfur, 28° C.
# Description: Pityrosporum ovale was cultured and the MIC determinations were carried out with a large number of azole derivatives. The growth of Pityrosporum ovale is considerably slower than, for example, of species of Candida or Torulopsis--it takes 3 to 5 days. It requires Abbe's medium as a special nutrient medium.
# 1. Setting up the dilution series of each preparation: 6.4 mg of preparation are dissolved in 1 ml of analytical grade dimethylformamide and 9 ml of distilled water are added. 1 ml now contains 640 mcg of preparation. If 2 ml are withdrawn and added to 2 ml of H2 O, the resulting concentration is 320 mcg/ml. If this is continued progressively,the following dilution series, in mcg/ml, is obtained: 640-320-160-80-40-20-10-5-2.5-1.25-0.625-0.313-0.156-0.078-0.039-0.02-0.01
# 2. Charging the test tubes: 0.5 ml portions of the particular dilution are introduced into test tubes.
# 3. Charging with nutrient medium: Abbe's medium is used.
# 200 ml portions of Abbe's medium are introduced into nutrient medium flasks. For use, the previously calculated amount of Abbe's medium is liquefied in a steaming pot and cooled until only warm to the touch; 4.5 ml are then added to each test tube. A second person receives each test tube and twirls it between his hands, like a kitchen whisk. This achieves good mixing of the diluted preparation with the nutrient medium. Each test tube is then immediately brought into a slanting position, in the same way as is usually employed to prepare agar slants.
# The culture control and the nutrient medium control are each 1 test tube in which 0.5 ml of H2 O is introduced in place of the preparation.
# 4. Inoculation with Pityrosporum ovale: A culture which had been grown for 3 weeks in Benham's fluid medium at 28° C. was used.
# After the nutrient medium has solidified thoroughly in all the test tubes, 0.1 ml of culture is allowed to run over each slant, except for the test tube of the nutrient medium control. 0.1 ml of physiological NaCl solution is added to the latter.
# 5. Incubation and readings: The incubation is carried out at 28° C. After 3 days, the culture control test tubes show germ growth, which reaches an optimum after 5 days.
# The MIC=minimum inhibitory concentration, and the PI=partial inhibition (retardation of growth by about 90% relative to the control, that is to say only about 10% of the germs have grown) are read off in comparison to the control.
# Of course,--as is usual in microbiology--all the work was carried out under sterile conditions, that is to say, using, for example, sterile test tubes, pipettes, nutrient media and the like.
# [1] = 72 h, reading after 3 days, read-out: MIC (minimum inhibitory concentration), reading after 3 days
# [2] = 72 h, reading after 3 days, read-out: PI (partial inhibition, growth reduced by at least 90% compared to the control), reading after 3 days
# [3] = 120 h, reading after 5 days, read-out: MIC (minimum inhibitory concentration), reading after 5 days
# [4] = 120 h, reading after 5 days, read-out: PI (partial inhibition, growth reduced by at least 90% compared to the control), reading after 5 days
Structure (SMILES),MIC [1] [µg/mL],IC90 [2] [µg/mL],MIC [3] [µg/mL],IC90 [4] [µg/mL]
C#CC(c1ccccc1)(c1ccccc1)n1ccnc1 [Example 10],8,< 1,16,< 1
COC(=O)C(c1ccccc1)(c1ccccc1)n1ccnc1 [Example 11],16,< 1,16,< 1
"CC(C)(C)C(=O)C(Oc1ccc(Cl)cc1)n1ccnc1 (stereo not drawn) [Example 1, [1-imidazolyl-(1)]-[1-(4'-chloro)phenoxy]-3-dimethyl-butane-2-one]",< 1,–,< 1,–
"CC(C)(C)C(=O)C(Oc1ccc(-c2ccc(Cl)cc2)cc1)n1ccnc1 (stereo not drawn) [Example 4, [1-imidazolyl-(1)]-[1-(4'-(4""-chlorophenyl)-phenoxy]-3,3-dimethyl-butan-2-one hydrochloride]",< 1,–,< 1,–
"CC(C)(C)C(=O)C(Cn1ccnc1)Oc1ccc(Cl)cc1Cl (stereo not drawn) [Example 5, hydrochloride]",2,< 1,2,< 1
Clc1ccccc1C(c1ccccc1)(c1ccccc1)n1ccnc1 [Example 13],16,8,16,8
CCC(c1ccccc1)(c1ccccc1)n1ccnc1 [Example 14],32,4,32,4
CC(C)(C)C(=O)C(Oc1ccc(Cl)cc1Cl)n1ccnc1 (stereo not drawn) [Example 2],< 1,–,< 1,–
CC(C)(C)C(=O)C(Cn1ccnc1)Oc1ccc(Cl)cc1 (stereo not drawn) [Example 8],4,2,8,4
CC(C)(C)C(O)C(Oc1ccc(-c2ccccc2)cc1)n1ccnc1 (stereo not drawn) [Example 7],4,2,8,2
CC(C)(C)C(=O)C(Cn1ccnc1)Oc1ccc(-c2ccccc2)cc1 (stereo not drawn) [Example 12],8,< 1,8,< 1
CC(C)(C)C(=O)C(Oc1ccc(Br)cc1)n1ccnc1 (stereo not drawn) [Example 3],< 1,–,< 1,–
Cc1ccccc1C1(n2ccnc2)c2ccccc2-c2ccccc21 [Example 9],8,2,8,4

# Further lines, results first:
MIC [1] [µg/mL],IC90 [2] [µg/mL],MIC [3] [µg/mL],IC90 [4] [µg/mL],Structure (SMILES)
> 64,32,> 64,32,Clc1cccc(C(c2ccccc2)(n2ccnc2)n2ccnc2)c1 [Example 17]
32,4,64,4,CC(=O)C(c1ccccc1)(c1ccccc1)n1ccnc1 [Example 15]
> 64,–,> 64,–,Cn1ccnc1C(c1ccccc1)(c1ccc(-c2ccccc2)cc1)n1ccnc1 (stereo not drawn) [Example 21]
> 64,32,> 64,32,CC1(n2ccnc2)c2ccccc2CCc2ccccc21 [Example 18]
> 64,16,> 64,16,Clc1ccc(C(c2ccccc2)(c2ccccc2)n2ccnc2)cc1 [Example 16]
> 64,64,> 64,64,CC(C)(C)C(O)C(Oc1ccc(Cl)cc1Cl)(c1ccccc1)n1ccnc1 (stereo not drawn) [Example 19]
> 64,64,> 64,64,Brc1cccc(C(c2ccccc2)(n2ccnc2)n2ccnc2)c1 [Example 20]
> 64,–,> 64,–,Brc1cccc(C(c2ccccc2)(n2cncn2)n2cncn2)c1 [Example 22]
